Results published in patent publication US20070154549A1, “Multiparticulate formulations for oral delivery” (VECTURA LTD, priority 2003, published 2007).
Where a name gives a salt, the structure may show the parent alone.

Assay: Dissolution studies / drug release
Assay type: physicochemical
Conditions: levels of hydrophobic melt binder of up to 20%

drug release: do not delay drug release
SMILES: CN(C)CCC(c1ccc(Cl)cc1)c1ccccn1 (stereo not shown) [chlorpheniramine maleate]
